Measured values taken from patent publication US9303020B2, “Compounds for the treatment of hepatitis C” (Bristol-Myers Squibb Company, priority 2012, dated 2016).

What was measured:
[1] = target: T1, NS5B protein of HCV, genotype 1b (Hepatitis C virus genotype 1b, UniProt Q9WMX2); assay: HCV NS5B RdRp enzyme assay; type: biochemical; conditions: 7 nM NS5B enzyme, 4 hours at 30° C.
T1 construct: The protein was expressed with an 18 amino acid C-terminal truncation to enhance the solubility; made in house; host or cells: E. coli BL21(DE3)
Procedure: The cDNA encoding the NS5B protein of HCV, genotype 1b, was cloned into the pET21a expression vector. The protein was expressed with an 18 amino acid C-terminal truncation to enhance the solubility. The E. coli competent cell line BL21(DE3) was used for expression of the protein. Cultures were grown at 37° C. for ˜4 hours until the cultures reached an optical density of 2.0 at 600 nm. The cultures were cooled to 20° C. and induced with 1 mM IPTG. Fresh ampicillin was added to a final concentration of 50 μg/mL and the cells were grown overnight at 20° C.
Cell pellets (3 L) were lysed for purification to yield 15-24 mgs of purified NS5B. […]
Reactions were allowed to proceed for 4 hours at 30° C. and terminated by the addition of 50 mM EDTA (10 μL). After incubating for at least 15 minutes, plates were read on an Amersham LEADseeker multimodality imaging system.
IC50 values for compounds were determined using ten different [I]. IC50 values were calculated from the inhibition using the four-parameter logistic formula y=A+((B−A)/(1+((C/x)^D))), where A and B denote minimal and maximal % inhibition, respectively, C is the IC50, D is hill slope and x represents compound concentration.

[2] = tested on: genotype 1b HCV replicon in Huh-7 cells; assay: HCV replicon luciferase assay; type: cell-based, HCV genotype 1b (human hepatocyte derived cell line Huh-7); conditions: Hepatitis C virus, Huh-7, 72 h, Renilla luciferase, 3 days incubation
Procedure: The cell lines used to evaluate compounds consist of a human hepatocyte derived cell line (Huh-7) that constitutively expresses a genotype 1b HCV replicon containing a Renilla luciferase reporter gene. These cells were maintained in Dulbecco's modified Eagle medium (DMEM) containing 10% FBS, 100 U/mL penicillin/streptomycin and 1.0 mg/mL G418.
To evaluate compound efficacy, titrated compounds were transferred to sterile 384-well tissue culture treated plates, and the plates were seeded with HCV replicon cells (50 μL at a density of 2.4×10^3 cells/well) in DMEM containing 4% FBS (final DMSO concentration at 0.5%). After 3 days incubation at 37° C., cells were analyzed for Renilla Luciferase activity using the EnduRen substrate (Promega cat #E6485) according to the manufacturer's directions. Briefly, the EnduRen substrate was diluted in DMEM and then added to the plates to a final concentration of 7.5 μM. The plates were incubated for at least 1 h at 37° C. then read on a Viewlux Imager (PerkinElmer) using a luminescence program. The 50% effective concentration (EC50) was calculated using the four-parameter logistic formula noted above.

HCV = conditions: extended dosing of the combination regimens with interferon and ribavirin; cited from earlier work

T1 sequence (Q9WMX2 2420-2992): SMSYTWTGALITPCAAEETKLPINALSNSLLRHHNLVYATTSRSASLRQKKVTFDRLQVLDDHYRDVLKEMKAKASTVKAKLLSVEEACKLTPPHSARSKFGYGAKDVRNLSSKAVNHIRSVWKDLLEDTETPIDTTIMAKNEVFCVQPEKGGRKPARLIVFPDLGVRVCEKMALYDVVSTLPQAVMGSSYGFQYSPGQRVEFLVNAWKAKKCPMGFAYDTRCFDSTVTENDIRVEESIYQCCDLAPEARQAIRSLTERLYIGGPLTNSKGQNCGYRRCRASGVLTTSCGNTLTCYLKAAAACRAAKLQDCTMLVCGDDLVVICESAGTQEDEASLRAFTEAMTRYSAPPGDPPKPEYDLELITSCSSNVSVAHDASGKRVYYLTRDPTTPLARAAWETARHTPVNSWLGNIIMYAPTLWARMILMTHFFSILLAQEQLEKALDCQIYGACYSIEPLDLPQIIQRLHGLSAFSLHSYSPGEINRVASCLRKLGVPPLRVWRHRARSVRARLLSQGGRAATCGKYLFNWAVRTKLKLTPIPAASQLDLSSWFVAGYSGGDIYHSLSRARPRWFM

`COc1cc(C)c(-c2ccc3oc(-c4ccc(F)cc4)c(-c4ncc[nH]4)c3c2F)cc1C(=O)NC1(c2ncccn2)CC1` [Example 1, 5-(4-fluoro-2-(4-fluorophenyl)-3-(1H-imidazol-2-yl)benzofuran-5-yl)-2-methoxy-4-methyl-N-(1-(pyrimidin-2-yl)cyclopropyl)benzamide] gave an IC50 [1] of 30 nM and an EC50 [2] of 30 nM.
Work on `CCNc1cc2oc(-c3ccc(F)cc3)c(-c3ncc[nH]3)c2cc1-c1ccc(OC)c(C(=O)NC2(c3ncccn3)CC2)c1` [Example 2, 5-(6-(ethylamino)-2-(4-fluorophenyl)-3-(1H-imidazol-2-yl)benzofuran-5-yl)-2-methoxy-N-(1-(pyrimidin-2-yl)cyclopropyl)benzamide] yielded an EC50 [2] of 7.2 nM.
`CCN(c1cc2oc(-c3ccc(F)cc3)c(-c3ncc[nH]3)c2cc1-c1ccc(OC)c(C(=O)NC2(c3ncccn3)CC2)c1)S(C)(=O)=O` [Example 3, 5-(6-(N-ethylmethylsulfonamido)-2-(4-fluorophenyl)-3-(1H-imidazol-2-yl)benzofuran-5-yl)-2-methoxy-N-(1-(pyrimidin-2-yl)cyclopropyl)benzamide] showed an EC50 [2] of 9 nM.
In the case of `CNC(=O)c1c(-c2ccc(F)cc2)oc2cc(N(CCO)S(C)(=O)=O)c(C3CC3)cc12` [HCV-796], the “toxicity during extended dosing” value (HCV) is listed as “hepatic toxicity”.
